Experimental data: patent publication US20230065953A1, “NOVEL HETEROARYL-TRIAZOLE COMPOUNDS AS PESTICIDES” (Bayer Aktiengesellschaft, priority 2019, published 2023)

Assays:
Assay type in all cases: in vivo
[1] = system: brown planthopper (Nilaparvata lugens); assay: Nilaparvata lugens spray test; settings: 96 h, rice plants, after 4 days
Description: Nilaparvata lugens—Spray Test • Solvent: 78.0 parts by weight of acetone • 1.5 parts by weight of dimethylformamide • Emulsifier: alkylarylpolyglycol ether
To produce a suitable preparation of active compound, 1 part by weight of active compound is mixed with the stated amount of solvents and is diluted with water, containing an emulsifier concentration of 1000 ppm, to the desired concentration. Further test concentrations are prepared by dilution with emulsifier containing water.
Rice plants (Oryza sativa) are sprayed with a preparation of the active ingredient of the desired concentration and the plants are infested with the brown planthopper (Nilaparvata lugens).
After 4 days mortality in % is determined. 100% means all planthoppers have been killed and 0% means none of the planthoppers have been killed.

[2] = system: larvae of the banded cucumber beetle (Diabrotica balteata); assay: Diabrotica balteata spray test; settings: 168 h, 100 g/ha (=32 μg/well), wheat seeds, after 7 days, read-out: efficacy (seedling growth)
Outline: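 Wheat seeds germinated 1 day on agar were sprayed with compound in acetone/dimethylformamide with alkylarylpolyglycol ether emulsifier, diluted in emulsifier-containing water. Each unit then received 10-20 larvae, and % efficacy was scored after 7 days.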

[3] = system: fall armyworm larvae (Spodoptera frugiperda); assay: Spodoptera frugiperda spray test (maize leaf sections); settings: 168 h
Outline: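 Maize leaf sections sprayed with compound in acetone/dimethylformamide, diluted in water with 1000 ppm alkylarylpolyglycol ether emulsifier. Dried sections infested with fall armyworm larvae. Mortality (%) scored after 7 days; 100% = all caterpillars killed.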

[4] = system: adult engorged female ticks (Rhipicephalus microplus); assay: Rhipicephalus (Boophilus) microplus injection test; settings: 168 h, 4 μg/animal, egg deposition after 7 days, read-out: efficacy (infertile eggs)
Outline: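 Five adult engorged female ticks each injected into the abdomen with 1 μL of compound in DMSO, then kept in a climate chamber. Fertile egg deposition assessed after 7 days, with unclear eggs held until hatching around 42 days; efficacy 100% means all eggs infertile, 0% all fertile.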

[5] = system: adult unfed cat fleas (Ctenocephalides felis); assay: Ctenocephalides felis oral test; settings: 48 h
Outline: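 About 20 adult unfed fleas fed through parafilm on cattle blood containing compound (DMSO stock diluted in blood), blood held at 37 °C and fleas at room temperature. Mortality (%) scored after 2 days.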

[6] = system: adult brown dog ticks (Rhipicephalus sanguineus); assay: Rhipicephalus sanguineus in-vitro contact test with adult brown dog ticks; settings: 5 μg/cm^2 (=500 g/ha), after 48 hours, read-out: efficacy (ticks dead or moribund)
Description: Rhipicephalus sanguineus—In-Vitro Contact Tests with Adult Brown Dog Ticks
(§1) 9 mg compound is solved in 1 mL acetone and diluted with acetone to the desired concentration. 250 μL of the test solution is filled in 25 mL glass test tubes and homogeneously distributed on the inner walls by rotation and tilting on a shaking device (2 h at 30 rpm). With a compound concentration of 900 ppm, an inner surface of 44.7 cm^2 and a homogeneous distribution, a dose of 5 μg/cm^2 is achieved.
(§2) After the solvent has evaporated, each test tube is filled with 5-10 adult brown dog ticks (Rhipicephalus sanguineus), closed with a perforated lid and incubated in a lying position at room temperature and relative humidity. After 48 hours efficacy is determined. The ticks are patted on the ground of the tubes and are incubated on a heating plate at 45-50° C. for at most 5 minutes. Immotile or uncoordinated moving ticks, which are not able to escape the heat by climbing upwards, are marked as dead or moribund.
An efficacy of 100% means all ticks are dead or moribund; 0% means no ticks are dead or moribund.

[7] = system: adult cat fleas (Ctenocephalides felis); assay: Ctenocephalides felis in-vitro contact test, adult cat flea; settings: 5 μg/cm^2 (=500 g/ha), after 48 hours
Description: Ctenocephalides felis—In-Vitro Contact Tests Adult Cat Flea
as §1
as §2, with “cat fleas (Ctenocephalides felis),” for “brown dog ticks (Rhipicephalus sanguineus),”, “fleas” for “ticks”, “fleas,” for “ticks,”
An efficacy of 100% means all fleas are dead or moribund; 0% means no fleas are dead or moribund.

[8] = system: Rhipicephalus microplus larvae (strain Parkhurst, resistant against synthetic pyrethroids); assay: Rhipicephalus (Boophilus) microplus in-vitro contact test, larval cattle tick; settings: 5 μg/cm^2 (=500 g/ha), after 48 hours, read-out: efficacy (larvae dead or moribund)
Outline: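 After drying, 20-50 larvae were held per tube at 27° C., 85% relative humidity for 48 h, and efficacy was scored as % dead or moribund.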

[9] = system: green peach aphid (Myzus persicae); assay: Myzus persicae oral test; settings: 120 h
Outline: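 Compound was dissolved in acetone, diluted with water and mixed into IPL41 insect medium with sugar under a parafilm seal. A mixed aphid population fed through the parafilm, and mortality (%) was scored after 5 days.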

[10] = system: adult mosquitoes Aedes aegypti strain MONHEIM; assay: Aedes aegypti test (AEDSAE surface treatment & contact assay); settings: 24 hours after contact, read-out: efficacy (mortality)
Description: Aedes aegypti test (AEDSAE surface treatment & contact assay) • Solvent: Aceton+2000 ppm rapeseed oil methyl ester (RME)
In order to produce a sufficient, active ingredient containing solution it is necessary to solve the test compound in the solvent-mix (acetone at 2 mg/ml/RME 2000 ppm). This solution is pipetted onto a glazed tile and after evaporation of the acetone, adult mosquitoes of the species Aedes aegypti strain MONHEIM are placed onto the dried surface. The exposure time is 30 minutes.
Mortality in percent (%) is determined 24 hours after contact of the insects to the treated surface. 100% mortality means that all tested insects are dead, whereas 0% means that no insect died.

[11] = system: green peach aphid (Myzus persicae); assay: Myzus persicae spray test; settings: foliar, 120 h, Chinese cabbage leaf disks, after 5 days
Outline: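 Chinese cabbage leaf discs infested with all instars of the aphid were sprayed with compound prepared in acetone/DMF and diluted in water containing 1000 ppm emulsifier. Mortality (%) was scored after 5 days, 100% meaning all aphids killed and 0% none.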

[12] = system: adult flies Musca domestica strain WHO-N; assay: Musca domestica test (MUSCDO surface treatment & contact assay); settings: 24 hours after contact, read-out: efficacy (mortality)
Outline: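 Compound in acetone at 2 mg/ml with 2000 ppm RME pipetted onto glazed tile; after acetone evaporates, adult WHO-N flies exposed on dried surface for 30 min. Percent mortality scored 24 h after contact.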

[13] = system: larvae of the southern green stink bug (Nezara viridula); assay: Nezara viridula spray test; settings: in Hordeum vulgare, 96 h
Outline: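 Barley plants sprayed with compound in acetone/dimethylformamide, diluted in water with 1000 ppm alkylarylpolyglycol ether emulsifier, then infested with Nezara viridula larvae. Percent mortality read after 4 days (100% = all killed, 0% = none).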

[14] = surface concentration 4 mg/m^2, 30 min exposure
[15] = surface concentration 20 mg/m^2, 30 min exposure

| SMILES | mortality at 100 g/ha ([1]; 100 g/ha) [%] | pest or weed control at 32 µg/disc, 100 g/ha [2] [%] | mortality at 100 g/ha [3] [%] | pest or weed control at 0.004 mg [4] [%] | mortality at 100 ppm [5] [%] | pest or weed control at 5 µg/cm2, 500 g/ha [6] [%] | efficacy (fleas dead or moribund) [7] [%] | pest or weed control at 5 µg/cm2 [8] [%] | mortality at 4 ppm [9] [%] | mortality at 4 mg/m2 [10, 14] [%] | mortality at 20 mg/m2 [10, 15] [%] | mortality at 100 g/ha [11] [%] | mortality at 4 mg/m2 [12, 14] [%] | mortality at 20 mg/m2 [12, 15] [%] | mortality at 100 g/ha [13] [%] | mortality at 500 g/ha [13] [%] | mortality at 500 g/ha [1] [%] |
| --- | --- | --- | --- | --- | --- | --- | --- | --- | --- | --- | --- | --- | --- | --- | --- | --- | --- |
| Cc1nc([C@H](C)NC(=O)c2cc(C(F)(F)F)cc(C(F)(F)F)c2)n(-c2ncc(C(=O)N(C)C(C)C)s2)n1 [I-10] | 90 | 100 | 100 | 100 | 100 | 100 | 90 | 100 | – | – | – | – | – | – | – | – | – |
| Cc1nc([C@H](C)NC(=O)c2cc(Br)cc(C#N)c2)n(-c2ncc(C#N)s2)n1 [I-15] | – | 100 | 83 | 100 | 100 | 100 | 100 | 90 | – | – | – | – | – | – | – | – | – |
| Cc1nc([C@H](C)NC(=O)c2cc(Br)cc(OC(F)(F)F)c2)n(-c2ncc(C#N)s2)n1 [I-17] | – | 100 | 100 | 100 | 100 | 100 | 80 | 100 | 100 | – | – | – | – | – | – | – | – |
| Cc1nc([C@H](C)NC(=O)c2cc(Cl)cc(C(F)F)c2)n(-c2ncc(C#N)s2)n1 [I-18] | – | 100 | 100 | 100 | 100 | 100 | – | 100 | 100 | 80 to 100 | 80 to 100 | 100 | 90 to 100 | 80 to 100 | – | – | – |
| Cc1nc([C@H](C)NC(=O)c2cc(Cl)cc(C(F)(F)F)c2)n(-c2ncc(C(=O)N(C)CC#N)s2)n1 [I-23] | – | 100 | 83 | 100 | 90 | 100 | 100 | 100 | 100 | – | – | 90 | – | – | – | – | – |
| Cc1nc([C@H](C)NC(=O)c2cc(OC(F)(F)F)cc(C3CC3)c2)n(-c2ncc(C(=O)N(C)CC#N)s2)n1 [I-24, N-(cyanomethyl)-2-(5-{(1S)-1-[3-cyclopropyl-5-(trifluoromethoxy)benzamido]ethyl}-3-methyl-1H-1,2,4-triazol-1-yl)-N-methyl-1,3-thiazole-5-carboxamide] | – | 100 | 100 | 100 | 100 | 80 | 100 | 100 | 100 | – | – | 100 | – | – | – | – | – |
| C[C@H](NC(=O)c1cc(C(F)(F)F)cc(S(C)(=O)=O)c1)c1ncnn1-c1ncc(C(=O)N(C)C)s1 [I-65] | – | 100 | 100 | – | – | – | 100 | – | – | – | – | 100 | – | – | 100 | 100 | 90 |
| CNC(=O)c1cnc(-n2nc(C)nc2[C@H](C)NC(=O)c2cc(C(F)(F)F)cc(C(F)(F)F)c2)s1 [I-102] | – | 100 | 100 | – | – | – | 100 | 100 | – | – | – | 90 | – | – | – | 100 | 100 |
| CNC(=O)c1cnc(-n2ncnc2[C@H](C)NC(=O)c2cc(OC(F)(F)F)cc(S(C)(=O)=O)c2)s1 [I-113] | – | 100 | – | – | – | – | – | – | – | – | – | 100 | – | – | 100 | 100 | 100 |
| C[C@H](NC(=O)c1cc(OC(F)F)cc(OC(F)F)c1)c1ncnn1-c1ncc(C(=O)N(C)C)s1 [I-119] | – | 100 | 100 | – | – | – | – | – | – | – | – | 90 | – | – | 100 | 100 | 100 |
| C[C@H](NC(=O)c1cc(OC(F)(F)F)cc(S(C)(=O)=O)c1)c1ncnn1-c1ncc(C(=O)N(C)C)s1 [I-120] | – | – | 100 | – | – | – | – | – | – | – | – | 90 | – | – | 100 | 100 | 100 |
| Cc1nc([C@H](C)NC(=O)c2cc(OC(F)(F)F)cc(C3CC3)c2)n(-c2ncc(C(=O)N(C)CC3CC3)s2)n1 [I-128] | – | 100 | 100 | – | – | – | – | – | – | – | – | 90 | – | – | 90 | 100 | 100 |
| CCN(C)C(=O)c1cnc(-n2nc(C)nc2[C@H](C)NC(=O)c2cc(OC(F)(F)F)cc(C3CC3)c2)s1 [I-129] | – | 100 | 100 | – | – | – | – | – | – | – | – | 100 | – | – | – | – | 100 |
| C[C@H](NC(=O)c1cc(S(=O)(=O)C(F)(F)F)cc(S(=O)(=O)C(F)(F)F)c1)c1ncnn1-c1ncc(C#N)s1 [I-138] | – | 100 | 100 | – | – | – | – | – | – | – | – | – | – | – | – | – | 100 |
| Cc1nc([C@H](C)NC(=O)c2cc(C(F)(F)F)cc(S(C)(=O)=O)c2)n(-c2ncc(C#N)s2)n1 [I-165] | – | 100 | 100 | – | – | – | – | – | – | – | – | – | – | – | – | 100 | 100 |
